Values joined by “and” are separate entries in the source; they are usually repeats but may differ in a detail not shown here. Equal entries are not always repeated.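 The compound was tested at five concentrations on cells cultured in 96-well plates, with a 48-hour exposure period. GI50: concentration for 50% inhibition of growth.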 Active and inactive are the calls of the source. No stated cut-off is given here; in the data, active = GI50 up to about 1.1 µM and inactive = higher.
Legend:
Assay in all cases: inhibition of tumour cell growth, NCI panel, 48 h
IGROV-1 = tested on: IGROV-1
EKVX = tested on: EKVX
M14 = tested on: M14
CAKI-1 = tested on: CAKI-1
ACHN = tested on: ACHN
SF-539 = tested on: SF-539
A498 = tested on: A498
SN12C = tested on: SN12C
CCRF-CEM = tested on: CCRF-CEM
HCT-116 = tested on: HCT-116
UACC-257 = tested on: UACC-257
SR = tested on: SR
SF-295 = tested on: SF-295
OVCAR-5 = tested on: OVCAR-5
NCI-H226 = tested on: NCI-H226
M19-MEL = tested on: M19-MEL
HL-60 = tested on: HL-60
SF-268 = tested on: SF-268
OVCAR-4 = tested on: OVCAR-4
K562 = tested on: K562
KM12 = tested on: KM12
UACC-62 = tested on: UACC-62
SW-620 = tested on: SW-620
OVCAR-8 = tested on: OVCAR-8
HOP-62 = tested on: HOP-62
NCI-H23 = tested on: NCI-H23
NCI-H522 = tested on: NCI-H522
UO-31 = tested on: UO-31
SNB-19 = tested on: SNB-19
NCI-H460 = tested on: NCI-H460
786-0 = tested on: 786-0
SK-MEL-5 = tested on: SK-MEL-5
OVCAR-3 = tested on: OVCAR-3
LOX IMVI = tested on: LOX IMVI
RPMI-8226 = tested on: RPMI-8226
DMS-273 = tested on: DMS-273
DMS-114 = tested on: DMS-114
A549 = tested on: A549
KM-20L2 = tested on: KM-20L2
MOLT-4 = tested on: MOLT-4
LXFL 529 = tested on: LXFL 529
HCC 2998 = tested on: HCC 2998
COLO 205 = tested on: COLO 205
Malme-3M = tested on: Malme-3M
SNB-78 = tested on: SNB-78
HOP-92 = tested on: HOP-92
SK-MEL-28 = tested on: SK-MEL-28
SNB-75 = tested on: SNB-75
SK-OV-3 = tested on: SK-OV-3
SK-MEL-2 = tested on: SK-MEL-2
U-251 = tested on: U-251
HCT-15 = tested on: HCT-15
DLD-1 = tested on: DLD-1
RXF 393 = tested on: RXF 393
TK-10 = tested on: TK-10
HT-29 = tested on: HT-29

Measured: GI50

COC1C=CC23c4cc5c(cc4C(O)OC2CN(C)C3C1)OCO5 (stereo not drawn)
active: M14 746 nM | SF-539 1.08 µM | HCT-116 1.07 µM | HL-60 1.08 µM | SK-MEL-5 434 nM | COLO 205 1.08 µM
inactive: IGROV-1 4.72 µM | EKVX 3.55 µM | CAKI-1 2.98 µM | ACHN 1.32 µM | A498 3.1 µM | SN12C 2.35 µM | CCRF-CEM 1.84 µM | UACC-257 1.77 µM | SR 1.17 µM | SF-295 1.69 µM | OVCAR-5 3.34 µM | NCI-H226 1.64 µM | M19-MEL 1.52 µM | SF-268 3.37 µM | OVCAR-4 1.35 µM | K562 1.77 µM | KM12 2.13 µM | UACC-62 4.13 µM | SW-620 1.59 µM | OVCAR-8 2.16 µM | HOP-62 2.54 µM | NCI-H23 2.94 µM | NCI-H522 2 µM | UO-31 2.69 µM | SNB-19 1.65 µM | NCI-H460 2.69 µM | 786-0 1.64 µM | OVCAR-3 1.76 µM | LOX IMVI 1.29 µM | RPMI-8226 2.56 µM | DMS-273 1.4 µM | DMS-114 1.26 µM | A549 2.4 µM | KM-20L2 1.29 µM | MOLT-4 1.34 µM | LXFL 529 1.45 µM | HCC 2998 2.29 µM | Malme-3M 1.9 µM

CC(C)=CCCC1(C)C=Cc2c(ccc3c2[nH]c2cc(O)c(C)cc23)O1 (stereo not drawn)
inactive: SNB-78 13 µM | OVCAR-5 19.4 µM | OVCAR-4 7.94 µM | OVCAR-8 3.81 µM | OVCAR-3 4.75 µM | RPMI-8226 6.59 µM | DMS-114 7.14 µM

C/C=C/C=C/CCCCCCCCCCCCC[C@]1(OC)C=C[C@@H](CC(=O)OC)OO1 [XESTIN A]
inactive: M14 14.8 µM and 17 µM | HOP-92 1.88 µM | SF-539 15.2 µM and 19.7 µM | SN12C 12.9 µM and 21.6 µM | HCT-116 16.1 µM and 10.1 µM | UACC-257 20.2 µM and 17.4 µM | SK-MEL-28 15.3 µM and 17.5 µM | SR 2.36 µM | M19-MEL 16.9 µM and 11 µM | HL-60 3.59 µM | SNB-75 17.4 µM and 9.64 µM | SF-268 17.3 µM and 21.7 µM | K562 12.2 µM and 20.5 µM | UACC-62 14.1 µM and 15.3 µM | SK-OV-3 28.6 µM and 19.5 µM | SK-MEL-2 15.5 µM and 25.5 µM | UO-31 2.77 µM | SNB-19 17.8 µM | NCI-H460 22.4 µM and 15.1 µM | SK-MEL-5 15.6 µM and 10.1 µM | RPMI-8226 7.45 µM and 13.5 µM | DMS-273 1.57 µM | U-251 14.7 µM and > 10 µM | Malme-3M 26.7 µM and 21.4 µM

COc1nc(=O)cc(N)n1C1OC(CO)C(O)C1O (stereo not drawn)
inactive: IGROV-1 > 100 µM | EKVX > 100 µM | M14 > 100000 nM | DLD-1 > 100 µM | CAKI-1 > 100 µM | ACHN > 100 µM | SF-539 > 100 µM | SNB-78 > 100 µM | A498 > 100 µM | SN12C > 100 µM | CCRF-CEM > 100 µM | RXF 393 > 100 µM | HCT-116 > 100 µM | UACC-257 > 100 µM | SK-MEL-28 > 100 µM | SF-295 > 100 µM | OVCAR-5 > 100 µM | TK-10 > 100 µM | HT-29 > 100 µM | NCI-H226 > 100 µM | M19-MEL > 100 µM | HL-60 > 100 µM | SNB-75 > 100 µM | SF-268 > 100 µM | K562 > 100 µM | KM12 > 100 µM | UACC-62 > 100 µM | SW-620 > 100 µM | SK-OV-3 > 100 µM | OVCAR-8 > 100 µM | HOP-62 > 100 µM | SK-MEL-2 > 100 µM | NCI-H23 > 100 µM | NCI-H522 > 100 µM | UO-31 > 100 µM | SNB-19 > 100 µM | NCI-H460 > 100 µM | 786-0 > 100 µM | SK-MEL-5 > 100000 nM | OVCAR-3 > 100 µM | LOX IMVI > 100 µM | RPMI-8226 > 100 µM | DMS-273 > 100 µM | DMS-114 > 100 µM | A549 > 100 µM | KM-20L2 > 100 µM | MOLT-4 > 100 µM | LXFL 529 > 100 µM | HCC 2998 > 100 µM | U-251 > 100 µM | COLO 205 > 100 µM | Malme-3M > 100 µM
> 100 µM: HCT-15

Reference: ChEMBL document CHEMBL1201862, “PubChem BioAssay data set” (2004)
